From patent US5936088A, “Substituted azacyclic or azabicyclic compounds with affinity and selectivity for nicotinic cholinergic receptors” (Novo Nordisk A/S, priority 1995, dated 1999)
Where a name gives a salt, the structure may show the parent alone. Read-outs that look alike come from different tables or passages of the source.

How the values were obtained:
[1] = biological target: T1, nicotinic acetylcholine receptors (Rattus norvegicus, UniProt P09483+P12390); experiment: inhibition of specific binding of ^3 H-methylcarbamylcholine (^3 H-MCC); conditions: for IC50: rat cortical receptors, ^3 H-MCC 2 nM, 0° C., 60 min
T1 construct: Fresh or frozen rat, brain tissue (hippocampus or cortex) was homogenized; from tissue
T1 sequence (P09483 31-630): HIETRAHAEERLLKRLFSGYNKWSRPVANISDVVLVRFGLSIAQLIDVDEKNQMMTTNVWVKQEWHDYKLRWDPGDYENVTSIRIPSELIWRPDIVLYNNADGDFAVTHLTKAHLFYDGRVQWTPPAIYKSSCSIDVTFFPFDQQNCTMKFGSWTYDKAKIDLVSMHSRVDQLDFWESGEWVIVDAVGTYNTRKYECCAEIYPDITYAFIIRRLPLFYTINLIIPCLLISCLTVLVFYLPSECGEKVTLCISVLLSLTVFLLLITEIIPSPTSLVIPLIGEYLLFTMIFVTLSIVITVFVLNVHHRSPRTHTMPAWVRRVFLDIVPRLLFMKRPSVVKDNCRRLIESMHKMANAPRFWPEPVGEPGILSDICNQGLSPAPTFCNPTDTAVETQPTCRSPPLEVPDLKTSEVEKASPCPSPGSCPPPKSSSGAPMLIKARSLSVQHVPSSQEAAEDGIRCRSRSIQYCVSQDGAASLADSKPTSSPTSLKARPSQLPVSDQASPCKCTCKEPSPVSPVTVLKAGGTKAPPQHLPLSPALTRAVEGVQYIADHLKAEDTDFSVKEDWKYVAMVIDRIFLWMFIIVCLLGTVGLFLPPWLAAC
T1 sequence (P12390 25-500): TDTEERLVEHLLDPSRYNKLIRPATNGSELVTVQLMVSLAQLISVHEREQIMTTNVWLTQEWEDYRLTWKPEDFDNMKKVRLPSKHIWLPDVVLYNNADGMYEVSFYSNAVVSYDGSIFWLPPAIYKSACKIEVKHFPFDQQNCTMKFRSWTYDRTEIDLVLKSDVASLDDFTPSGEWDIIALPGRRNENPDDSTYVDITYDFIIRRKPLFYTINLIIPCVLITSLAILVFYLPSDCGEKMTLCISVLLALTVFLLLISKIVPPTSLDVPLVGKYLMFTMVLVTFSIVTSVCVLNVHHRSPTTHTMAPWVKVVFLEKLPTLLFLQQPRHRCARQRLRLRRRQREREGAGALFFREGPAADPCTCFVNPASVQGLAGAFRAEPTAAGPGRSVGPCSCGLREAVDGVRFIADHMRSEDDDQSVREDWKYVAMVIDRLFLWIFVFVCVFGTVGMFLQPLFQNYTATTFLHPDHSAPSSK
From the text: The pharmacological properties of the compounds of the invention can be illustrated by determining their capability to inhibit the specific binding of ^3 H-methylcarbamylcholine (^3 H-MCC) (Abood and Grassi, Biochem. Pharmacol., Vol. 35, pp. 4199-4202, (1986)).
^3 H-MCC labels the nicotinic receptors in the CNS. The inhibitory effect on ^3 H-MCC binding reflects the affinity for nicotinic acetylcholine receptors.
Fresh or frozen rat, brain tissue (hippocampus or cortex) was homogenized in assay buffer (50 mM Tris-HCl, pH 7.4, 120 mM NaCl, 5 mM KCl, 2 mM CaCl2, 1 mM MgCl2) and centrifuged for 10 min. at 40.000×g. Pellets were subsequently reconstituted in assay buffer and an appropriate amount of tissue sample was mixed in tubes with ^3 H-methylcarbamylcholine (NEN, NET-951; final concentration 2 nM) and test drug. The tubes were incubated at 0° C. for 60 min. Unbound ligand was separated from bound ligand by vacuum filtration through GF/B filters presoaked in 0.5% polyethylenimine. Filters were washed three times with 5 ml wash buffer (50 mM Tris-HCl, pH 7.4) and transferred to vials. 4 ml scintillation fluid was added and the radioactivity was measured by scintillation counting. Unspecific binding was measured with 10 μM nicotine.
The IC50 values of the test compounds were determined by nonlinear regression analyses (GraphPad InPlot).
Table I illustrates the affinity of the compounds of the present invention for nicotinic and muscarinic receptors as determined by ^3 H-MCC and ^3 H-Oxo binding to rat cortical receptors. The compounds, however, show selective affinity for nicotinic receptors as compared to muscarinic receptors, i.e OXO/MCC>1.

[2] = biological target: muscarinic acetylcholine receptors; experiment: inhibition of specific binding of ^3 H-Oxotremorine-M (^3 H-Oxo); conditions: rat cortical receptors; ^3 H-Oxotremorine 1.0 nM, 25° C., 30 min
From the text: Furthermore, the pharmacological properties of the compounds of the invention can also be illustrated by determining their capability to inhibit the specific binding of ^3 H-Oxotremorine-M (^3 H-Oxo). Birdsdall N. J. M., Hulme E. C., and Burgen A. S. V. (1980). "The Character of Muscarinic Receptors in Different Regions of the Rat Brain". Proc. Roy. Soc. London (Series B) 207,1.
^3 H-Oxo labels muscarinic receptor in the CNS (with a preference for agonist domains of the receptors). Three different sites are labelled by ^3 H-Oxo. […] Using the present experimental conditions only the high and medium affinity sites are determined.
The inhibitory effects of compounds on ^3 H-Oxo binding reflects the affinity for muscarinic acetylcholine receptors.
All preparations are performed at 0-4° C. unless otherwise indicated. […]
The final pellet is homogenized in 20 mM Hepes pH: 7.4 (100 ml per g of original tissue) and used for binding assay. […] Non-specific binding is determined in triplicate using arecoline (1 ug/ml, final concentration) as the test substance. […] The amount of radioactivity on the filters are determined by conventional liquid scintillation counting. […]
Table I illustrates the affinity of the compounds of the present invention for nicotinic and muscarinic receptors as determined by ^3 H-MCC and ^3 H-Oxo binding to rat cortical receptors. […]

[3] = biological target: muscarinic acetylcholine receptors; conditions: read-out: affinity of ^3 H-Oxo labelled site, cited from earlier work
cognition = conditions: age related; cited from earlier work
attention and memory = conditions: healthy humans and Alzheimer's disease patients; cited from earlier work
[4] = system: dopamine release in the nucleus accumbens; conditions: nucleus accumbens versus striatum; cited from earlier work
substantia nigra = conditions: chronic nicotine; lesioning; cited from earlier work
Tourette's syndrome = conditions: in vivo; cited from earlier work
dopaminergic effects = conditions: various behavioral models; cited from earlier work

With `CC(=O)/C=C1\CN2CCC1CC2.O=C(O)C(=O)O` [Compound 1, (Z)-3-Acetylmethylene-1-azabicyclo[2.2.2]octane oxalate] the IC50 [1] was 23 nM, the “Oxo/MCC Ratio” value ([1]; selectivity nicotinic versus muscarinic: ^3 H-Oxo IC50 / ^3 H-MCC IC50) was 52 and the IC50 [2] was 1200 nM.
`CC(=O)/C=C1/CN2CCC1CC2` [Compound 2, (E)-3-Acetylmethylene-1-azabicyclo[2.2.2]octane oxalate] showed an IC50 [1] greater than 300 nM and an IC50 [2] of less than 1000 nM.
In the case of `C[N+](C)(C)CC#CCN1CCCC1=O` [^3 H-Oxo, ^3 H-Oxotremorine-M], the Kd ([3]; high affinity site) is listed as 1.8 nM, the Kd ([3]; medium affinity site) is listed as 20 nM and the Kd ([3]; third (lowest affinity) site, not determined under the present conditions) is listed as 3000 nM.
For `CNC1(C)C2CCC(C2)C1(C)C` (centres unmarked) [mecamylamine], the cognitive impairment (cognition) is given as “shown to cause cognitive impairment in an age related way”.
In the case of `CN1CCCC1c1cccnc1` (centres unmarked) [nicotine], the attention and memory (attention and memory) is given as “improved attention and memory in healthy humans”, the “stimulation of dopamine release” value [4] is given as “stimulates dopamine release in the nucleus accumbens more potently than in striatum” and the “protection against cell loss in the substantia nigra” value (substantia nigra) is given as “may protect against cell loss in the substantia nigra caused by lesioning”. For the same compound, the “effects in Tourette's syndrome” value (Tourette's syndrome) was “shown beneficial effects in Tourette's syndrome” and the “potentiation of dopaminergic effects” value (dopaminergic effects) was “will potentiate dopaminergic effects in various behavioral models”.
